Reference: patent publication US12564595B2, “Prophylactic and therapeutic pharmaceutical agent for HIV infectious diseases characterized by comprising combination of integrase inhibitor and anti-HIV agent” (Shionogi & Co., Ltd., priority 2019, dated 2026)

Tests used:
[1] = system: HIV mutant strain 1 (E138K/G140S/Q148H/N155H); assay: Test Example 2: resistance evaluation test (HeLa-CD4 reporter), mutant strain 1; assay type: cell-based; conditions: FC=EC50 of mutant strain/EC50 of wild strain; HeLa-CD4 cells
Method: (§1) A serial dilution series of test samples in 96-well microplates was prepared (50 […]).
(§2) 2.5×10^4/mL of HeLa-CD4 cell suspension was dispensed into each of the microplates containing test sample, in the amount of 100 μL/well, and HIV virus liquid (wild strain and mutant strain) was then dispensed in an amount of 50 μL/well. Mixing was performed using a plate mixer and culturing was performed for three days in a CO2 incubator. After removing the cultured supernatant of each well by suction, 100 μL of the cell solution buffer in the reporter measurement kit was dispensed thereto, and freezing was conducted in a refrigerator (−80° C.). The plates frozen in the refrigerator were defrosted at room temperature, then mixed using a plate mixer and centrifuged for 5 min at 1,200 rpm. The supernatant of each well was divided to 96-well microplates (BLACK) in the amount of 20 μL in each case. The chemiluminescence reagent in the reporter assay kit was dispensed in the amount of 100 μL in each case, and, after reacting for about 1 h at room temperature, the amount of luminescence was measured using a MicroBeta TRILUX.
(§3) The degree of resistance (fold change (FC)) of each mutant strain was also calculated using the following formula. FC=EC50 of mutant strain/EC50 of wild strain (Results)
(§4) The results of the example compounds relating to formula (I) of (A) are shown below. The […] in respect of mutant strain 1 (E138K/G140S/Q148H/N155H) and the FC in respect of mutant strain 2 (E92Q/E138T/G140S/Q148H) are shown in the Table.

[2] = system: HIV mutant strain 2 (E92Q/E138T/G140S/Q148H); assay: Test Example 2: resistance evaluation test (HeLa-CD4 reporter), mutant strain 2; assay type: cell-based; conditions: FC=EC50 of mutant strain/EC50 of wild strain; HeLa-CD4 cells
Method: as §1, §2, §3, §4

[3] = Test Example 8: metabolic stability test; assay type: in vitro ADME, human
Method: The extent of metabolization of the compound according to the present invention in the liver was evaluated by reacting commercially available pooled human liver microsomes with the compound according to the present invention for a fixed time and calculating the remaining percentage by comparing the reaction sample with an unreacted sample.
The reaction (oxidative reaction) was conducted for 0 min or 30 min at 37° C. in the presence of 1 mmol/L of NADPH, in a 0.2 mL buffer solution containing 0.5 mg of human liver microsome protein/mL (50 mmol/L Tris-HCl pH 7.4, 150 mmol/L potassium chloride, 10 mmol/L magnesium chloride). After the reaction, 50 μL of reaction liquid were added to 100 μL of methanol/acetonitrile=1/1 (v/v) solution, mixed, and centrifuged for 15 minutes at 3000 rpm. The compound according to the present invention in the centrifuged supernatant was quantified using LC/MS/MS or solid phase extraction (SPE)/MS; the residual amount of the compound according to the present invention after the reaction was calculated, taking the amount of the compound at the 0 min reaction point as 100%.

[4] = pooled human liver microsomes, 30 min at 37° C., NADPH, compound concentration 0.5 μmol/L
[5] = human, microsomes, 0.5 h, 0.5 μmol/L, pH 7.4

SMILES | FC in respect of mutant strain 1 (E138K/G140S/Q148H/N155H) [1] | FC in respect of mutant strain 2 (E92Q/E138T/G140S/Q148H) [2] | Remaining percentage [3, 4] | Remaining percentage [3, 5]
CCN1C(=O)c2c(O)c(=O)c(C(=O)NCc3c(F)cc(F)cc3F)cn2N2CCCC[C@@H]12 [Compound I-016] | 13 | 10 | 88% | 
CCN1C(=O)c2c(O)c(=O)c(C(=O)NCc3ccc(F)cc3F)cn2N2CCCC[C@@]12C [Compound I-024] | 24 | 16 | 92.5% | 
CC(C)N1C(=O)c2c(O)c(=O)c(C(=O)NCc3c(F)cc(F)cc3F)cn2N2C[C@@H]3CC[C@@H](O3)[C@@H]12 [II-002] | 3.1 | 7.4 | 80.2% | 
COC[C@@H]1CC[C@H]2N(C(C)C)C(=O)c3c(O)c(=O)c(C(=O)NCc4ccccc4F)cn3N12 [II-005] | 4.6 | 7.7 | 80.8% | 
CC(C)N1C(=O)c2c(O)c(=O)c(C(=O)NCc3ccccc3F)cn2N2C[C@@H]3CC[C@@H](O3)[C@@H]12 [II-009] | 5.6 | 6.4 | 87% | 
CCN1C(=O)c2c(O)c(=O)c(C(=O)NCc3ccc(F)cc3F)cn2N2C[C@@H]3CCC[C@@H](C3)[C@@H]12 [II-013] | 6.1 | 8.7 | 77.6% | 
CCN1C(=O)c2c(O)c(=O)c(C(=O)NCc3c(F)cc(F)cc3F)cn2N2C[C@@H]3CC[C@@H](C3)[C@@H]12 [II-014] | 5.7 | 7.3 | 74.3% | 
CC(C)N1C(=O)c2c(O)c(=O)c(C(=O)NCc3ccc(F)cc3F)cn2N2C[C@@H]3CC[C@@H](O3)[C@@H]12 [II-016] | 6.6 | 9 | 89.1% | 
C[C@H]1CC[C@H]2N(C)C(=O)c3c(O)c(=O)c(C(=O)NCc4cccc(Cl)c4F)cn3N2C1 [II-019] | 7.3 | 7 | 84.1% | 
CC(C)N1C(=O)c2c(O)c(=O)c(C(=O)NCc3ccc(F)cc3F)cn2N2CCOC[C@@H]12 [II-021] | 8.1 | 14 | 87.5% | 
CN1C(=O)c2c(O)c(=O)c(C(=O)NCc3cccc(Cl)c3F)cn2N2C[C@@H]3CC[C@@H](C3)[C@@H]12 [II-023] | 9.9 | 15 | 74.2% | 
CCN1C(=O)c2c(O)c(=O)c(C(=O)NCc3ccc(F)cc3F)cn2N2[C@H]3COC[C@H]3C[C@@H]12 [II-038] | 78 | 110 |  | 77.2%
CCN1C(=O)c2c(O)c(=O)c(C(=O)NCc3ccc(F)cc3F)cn2N2C[C@H](COC)C[C@@H]12 [II-039] | 48 | 62 | 84.3% | 
CCN1C(=O)c2c(O)c(=O)c(C(=O)NCc3c(F)cc(F)cc3F)cn2N2C[C@@H]3CC[C@@H](O3)[C@@H]12 [II-041] | 17 | 28 | 88.4% | 
CCN1C(=O)c2c(O)c(=O)c(C(=O)NCc3c(F)cc(F)cc3F)cn2N2C[C@@H](C)C[C@@H]12 [II-043] | 18 | 17 | 83.2% | 
CCN1C(=O)c2c(O)c(=O)c(C(=O)NCc3ccc(F)cc3F)cn2N2C[C@@H](COC)C[C@@H]12 [II-056] | 15 | 28 | 94.3% | 

SMILES | FC in respect of mutant strain 1 (E138K/G140S/Q148H/N155H) [1] | FC in respect of mutant strain 2 (E92Q/E138T/G140S/Q148H) [2] | Remaining percentage [3, 4] | Remaining percentage [3, 5]
CN1C(=O)c2c(O)c(=O)c(C(=O)NCc3cccc(Cl)c3F)cn2N2C[C@@H]3CC[C@@H](O3)[C@@H]12 [II-058] | 25 | 15 | 97.7% | 
C[C@H]1CC[C@H]2N(C)C(=O)c3c(O)c(=O)c(C(=O)NCc4ccc(Cl)cc4F)cn3N2C1 [II-063] | 38 | 25 | 95.7% | 
CCN1C(=O)c2c(O)c(=O)c(C(=O)NCc3ccc(F)cc3F)cn2N2CC[C@H](C)C[C@@H]12 [II-064] | 27 | 22 | 104% | 
CCN1C(=O)c2c(O)c(=O)c(C(=O)NCc3ccc(F)cc3)cn2N2CCCC[C@@H]12 [II-070] | 32 | 36 | 100% | 
CCN1C(=O)c2c(O)c(=O)c(C(=O)NCc3ccc(F)cc3F)cn2N2[C@H](COC)CC[C@@H]12 [II-084] | 39 | 38 | 97.5% | 
CCN1C(=O)c2c(O)c(=O)c(C(=O)NCc3ccc(F)cc3F)cn2N2C[C@@H]3CC[C@@H](O3)[C@@H]12 [II-088] | 47 | 45 | 101% | 
CN1C(=O)c2c(O)c(=O)c(C(=O)NCc3c(F)cc(F)cc3F)cn2N2CCCC[C@@H]12 [II-089] | 38 | 14 | 105% | 
CN1C(=O)c2c(O)c(=O)c(C(=O)NCc3cccc(F)c3F)cn2N2CCCC[C@@H]12 [II-091] | 48 | 17 | 96.9% | 
CN1C(=O)c2c(O)c(=O)c(C(=O)NCc3cccc(Cl)c3F)cn2N2CCOC[C@@H]12 [II-094] | 50 | 27 | 97.2% | 
CN1C(=O)c2c(O)c(=O)c(C(=O)NCc3cccc(Cl)c3F)cn2N2CCCC[C@@]12C [II-129] | 44 | 26 | 88.6% | 
CN1C(=O)c2c(O)c(=O)c(C(=O)NCc3cccc(Cl)c3F)cn2N2[C@H]3COC[C@H]3C[C@@H]12 [II-132] | 76 | 17 |  | 101%
CC(C)N1C(=O)c2c(O)c(=O)c(C(=O)NCc3c(F)cc(F)cc3F)cn2N2[C@H]3COC[C@H]3C[C@@H]12 [II-133] | 17 | 34 |  | 73.3%
CN1C(=O)c2c(O)c(=O)c(C(=O)NCc3cccc(Cl)c3F)cn2N2C[C@@H]3CCC[C@@H](C3)[C@@H]12 [II-139] | 18 | 10 | 75.4% | 
CCN1C(=O)c2c(O)c(=O)c(C(=O)NCc3ccc(F)cc3F)cn2N2C[C@@H]3CCC[C@@H](O3)[C@@H]12 [II-150] | 26 | 16 | 98.6% | 
CCN1C(=O)c2c(O)c(=O)c(C(=O)NCc3ccc(F)nc3F)cn2N2C[C@@H]3CC[C@@H](O3)[C@@H]12 [II-152] | 36 | 25 | 105% | 
